# Laboratory results: US20220017833A1, “Methods and Compositions for Scavenging Sulfides from Hydrocarbon Fluids and Aqueous Streams” (Nexgen Oilfield Chemicals, LLC, priority 2019, published 2022)
# Tests used:
# [1] = operational testing in a natural gas production facility; conditions: natural gas production facility
# Experimental: In operational testing in a natural gas production facility, both an anhydrous glyoxy isopropyl aminacetal (GIDAc) scavenging system and an aqueous glyoxy isopropyl diaminol (GIDA) scavenging system were tested in comparison with an industry standard triazine-based scavenger.
# [2] = Long Reaction Time Capacity Test; conditions: for Min/Eq BT / Min/Eq FD / Min to BT / Min to FD: 20 g test
# Excerpt: (§1) Referring now to FIG. 1, therein is schematically depicted a sulfide scavenger testing system 100 comprising a gas source 2, a flow regulator 4, gas treatment vessel 6, and a sulfide measurement device 8. In one testing embodiment, gas (not shown) is flowed from gas source 2 via gas feed piping 10 into flow regulator 4, which regulates gas flow to gas treatment vessel 6 via regulated gas feed piping 12. The regulated gas flows into gas treatment vessel 6 via a bottom inlet 14 thereof, where it comes into contact with a volume of liquid 16 comprising a sulfide scavenger system (not separately labeled). The gas, having been treated by the liquid, flows out of a top end 18 of gas treatment vessel 6 and flows into sulfide measurement device 8 via treated gas outlet piping 20.
# In one embodiment, the gas contained in gas source 2 consists substantially of about 15% H2S, and about 3% CO2, with the remainder being Methane. In one embodiment, gas flow from the flow regulator 4 is controlled such that the gas is flowed into the gas treatment vessel 6 at a flow rate of 100 mL/min. up to 500 mL/min. In one embodiment, a gas sparging device, such as a fine pore frit (not shown), is utilized to better distribute the gas into the scavenger liquid. In one embodiment, the gas treatment vessel 6 contains about 20 g of a liquid H2S scavenger, such as one or more diaminols/diaminacetals in a chemical system as described above. In one aspect, to the extent possible, H2S and/or CO2 are scavenged from the gas by the scavenger and the treated (“sweet”) gas exits top end 18 of treatment vessel 6. In one embodiment, sulfide measurement device 8 monitors the concentration of H2S leaving treatment vessel 6. in the gas phase. In other embodiments (not shown), a CO2 measurement device may be similarly employed to monitor the concentration of CO2 leaving treatment vessel 6 in the gas phase.
# (§2) In one embodiment, gas is flowed through sulfide scavenger testing system 100 until the outlet H2S concentration reaches a 4,000 ppm target, at which point the test is concluded. This relative time duration before the target is reached is used to compare H2S scavenger capacity given the kinetics of each sulfide scavenger system. The longer the duration, the better the capacity.
# In this test, methane containing 15% H2S and 3% CO2 by weight is sparged via a fine pore frit (not shown) at 100 mL/min through a column of 20 g of scavenger solution (See FIG. 1). The fine bubbles produced rise slowly, providing plenty of time, plenty of surface area, and a short path through which the H2S must diffuse to the scavenger in the liquid 16. Detector 8 on the outlet line 20 is used to measure H2S concentration in the exiting gas. The times to first detection (FD), at a threshold of 15 ppm, and to complete breakthrough (BT), at the detector saturation of 4000 ppm (0.4%), are recorded. This test is designed to measure the effective scavenging capacity in applications with long contact times.
# Note that the true total capacity of a scavenger with infinite time to react is simply equal to the stoichiometry of the reaction—the moles of H2S consumable per mole of scavenging molecule, which can be calculated. This Long Reaction Time Capacity measurement falls short of that ultimate stoichiometric capacity and so is still reaction rate dependent, just less so than the Short Reaction Time Capacity Test.
# [3] = Short Reaction Time Capacity Test; conditions: for Min/Eq BT / Min/Eq FD / Min to BT / Min to FD: 20 g test; for Min to BT / Min to FD: 3.00 g BuOH, GIDA 6.68 g as GID, 3.32 g water
# Excerpt: as §1
# In one embodiment, gas flow from the flow regulator 4 is controlled such that the gas is flowed into the gas treatment vessel 6 at a flow rate of 100 mL/min. up to 500 mL/min. In one embodiment, a gas sparging device, such as a fine pore frit (not shown), is utilized to better distribute the gas into the scavenger liquid. In one embodiment, the gas treatment vessel 6 contains about 20 g of a liquid H2S scavenger, such as one or more diaminols/diaminacetals in a chemical system as described above. In one aspect, to the extent possible, H2S and/or CO2 are scavenged from the gas by the scavenger and the treated (“sweet”) gas exits top end 18 of treatment vessel 6. In one embodiment, sulfide measurement device 8 monitors the concentration of H2S leaving treatment vessel 6. in the gas phase. In other embodiments (not shown), a CO2 measurement device may be similarly employed to monitor the concentration of CO2 leaving treatment vessel 6 in the gas phase.
# as §2
# The fine bubbles produced rise slowly, providing plenty of time, plenty of surface area, and a short path through which the H2S must diffuse to the scavenger in the liquid 16. Detector 8 on the outlet line 20 is used to measure H2S concentration in the exiting gas. The times to first detection (FD), at a threshold of 15 ppm, and to complete breakthrough (BT), at the detector saturation of 4000 ppm (0.4%), are recorded. This test is designed to measure the effective scavenging capacity in applications with long contact times.
# This test is the same as the Long Reaction Time Capacity Test, but without the gas sparging device, so as to produce larger bubbles, and at a higher feed rate of 200 mL/min, after the first 8 minutes at 100 mL/min. The larger bubbles rise quickly through the liquid 16, providing little time, little surface area, and a long path through which the H2S must diffuse to the scavenger in the liquid. This test is designed to measure the effective scavenging capacity in applications with short contact times. It is far more reaction rate dependent than the Long Reaction Time Capacity and so is a more critical and differentiating test.
# With triazine, one H2S reacts twice with the same molecule of triazine, replacing one amine, so the rate is “first order”, meaning proportional to the concentration of triazine.
# [4] = Eq/test Triazine 0.068, GIDAc 0.185, GIDA 0.076
# [5] = GIDAc 9.00 g as GID + 11.00 g MeOH
# [6] = Triazine 7.50 g + 12.50 g water, GIDAc 13.00 g as GID + 7.00 g MeOH, GIDA 6.68 g as GID, 3.32 g water, 8.00 g MeOH, 2.00 g BuOH
# [7] = Eq/test GIDAc 0.114, GIDA 0.076 (8.00 g MeOH, 2.00 g BuOH)
# [8] = Eq/test Triazine 0.068, GIDAc 0.157, GIDA 0.076 (7.50 g MeOH, 2.50 g BuOH)
# [9] = GIDAc 8.00 g as GID, 9.00 g MeOH, 8.00 g MeOH, 2.00 g BuOH
# [10] = Triazine 7.50 g + 12.50 g water, GIDAc 11.00 g as GID, 6.00 g MeOH, 7.50 g MeOH, 2.50 g BuOH
# [11] = Short Reaction Time Capacity Test, Table 2 compositions
structure (smiles),measurement,setting,value
COC(NC(C)C)C(NC(C)C)OC (stereo not drawn) [GIDAc],employable in scavenging H2S from natural gas,[1],employable
same,Min/Eq BT,[2]; [4],707 Min/Eq
same,Min/Eq FD,[2]; [4],566 Min/Eq
same,Min/Eq BT,[2]; GIDAc 0.128 Eq/test,771 Min/Eq
same,Min/Eq FD,[2]; GIDAc 0.128 Eq/test,592 Min/Eq
same,Min to BT,[2]; [5],99 min
same,Min to FD,[2]; [5],76 min
same,Min to BT,[2]; [6],131 min
same,Min to FD,[2]; [6],105 min
same,"molar capacity at long reaction times (comparison, accounting for molar concentration)",[2]; Graph 1 (FIG. 3),the same capacity as GIDA at long reaction times
same,Min/Eq BT,[3]; [7],438 Min/Eq
same,Min/Eq FD,[3]; [7],368 Min/Eq
same,Min/Eq BT,[3]; [8],376 Min/Eq
same,Min/Eq FD,[3]; [8],319 Min/Eq
same,Min to BT,[3]; [9],50 min
same,Min to FD,[3]; [9],42 min
same,Min to BT,[3]; [10],59 min
same,Min to FD,[3]; [10],50 min
same,"molar capacity at short reaction times (comparison, accounting for molar concentration)",[3]; Graph 1 (FIG. 3),lower molar capacity at short reaction times
same,contribution to the BT capacity (coefficient of best fit equation),[3]; [11],404 minutes per equivalent
same,contribution to the FD capacity (coefficient of best fit equation),[3]; [11],324 minutes per equivalent
